# How the values were obtained:
# [1] = test system: membrane protein from CHO-M1; assay: Modulation of enzyme donor-GTP gamma-S conjugate inhibition by GTP gamma-S; type: binding; settings: 1 hr; for % I: absence of GTP-gamma-S; for GTP-r-S (reading): membrane preincubated with GTP gamma-S
# Method: In order to test if the inhibition was capable of being modulated. The experiments were performed by incubating the membrane preparation with GTPgamma-S (10 ul of 10 uM). Higher concentrations of enzyme donor together with another detergent saponin were tried to enhance signal and minimize non-specific binding.
# 10 ul of membrane protein (10 ug from CHO-M1) in a binding buffer (50 mM HEPES, 20 mM NaCl, 10 mM MgCl2, with 0.01% CHAPS or 0.01% saponin) was incubated with 10 ul of GTP gamma-S for 30 minutes at room temperature 10 ul of the enzyme donor conjugate at various concentrations was added and the mixture incubated for 60 minutes at ambient temperature. 10 ul of enzyme acceptor (0.45 uM) and 15 ul of the chemiluminescent reagent, Galacton Star with Emerald plus (Applied Biosystems, Foster city, Calif.) added and the microtiter plate read on the Lumicount (Packard, Meridien, Conn.). The readings are tabulated below with ED46 mer used as control. Open and close refer to free and bound enzyme donor conjugate to enzyme acceptor. Percentage inhibition is calculated by (open-close)/open readings and is in the absence of GTP-gamma-S.
# [2] = test system: membrane protein from CHO-M1; assay: Binding of enzyme donor-GTP gamma-S conjugate to membrane protein (open/close readings); settings: 1 hr
# Method: 20 ul of membrane protein (10 ug from CHO-M1) in a binding buffer (50 mM HEPES, 20 mM NaCl, 10 mM MgCl2, with 1 mM DTT or 0.01% CHAPS) was incubated with 10 ul of enzyme donor-GTP gamma-S conjugate at various concentrations for 60 minutes at ambient temperature. 10 ul of enzyme acceptor (0.18 uM) and 15 ul of the chemiluminescent reagent, Galacton Star with Emerald plus (Applied Biosystems, Foster city, Calif.) added and the microtiter plate read on the Lumicount (Packard, Meridien, Conn.). The readings are tabulated below with ED46 mer used as control. Open and Close refer to free and bound enzyme donor conjugate to enzyme acceptor. Percentage inhibition is calculated by (open-close)/open readings.
# [3] = Buffer with 0.01% CHAPS, 0.5 nM
# [4] = Buffer with 0.01% Saponin, 0.5 nM
# [5] = Buffer with 0.01% Saponin, 5 nM
# [6] = Buffer with 0.01% Saponin, 10 nM
# [7] = Buffer with 0.01% Saponin, 25 nM
# [8] = Buffer with 0.01% Saponin, 50 nM
sequence,measurement,setting,value
"SLAVVLQRRDWENPGVTQLNKLAAHPPFASWRNSEEARTDCPSQQL [45+1 mer, 46 mer enzyme donor fragment]",% M,[1]; [3],−1.6%
same,close,[1]; [3],353
same,open,[1]; [3],322
same,% I,[1]; [3],−9.7%
same,GTP-r-S (reading),[1]; [3],348
same,% M,"[1]; Buffer with 0.01% CHAPS, 5 nM",10.2%
same,close,"[1]; Buffer with 0.01% CHAPS, 5 nM",1318
same,open,"[1]; Buffer with 0.01% CHAPS, 5 nM",1214
same,% I,"[1]; Buffer with 0.01% CHAPS, 5 nM",−8.6%
same,GTP-r-S (reading),"[1]; Buffer with 0.01% CHAPS, 5 nM",1468
same,% M,"[1]; Buffer with 0.01% CHAPS, 10 nM",6.1%
same,close,"[1]; Buffer with 0.01% CHAPS, 10 nM",3265
same,open,"[1]; Buffer with 0.01% CHAPS, 10 nM",2971
same,% I,"[1]; Buffer with 0.01% CHAPS, 10 nM",−9.9%
same,GTP-r-S (reading),"[1]; Buffer with 0.01% CHAPS, 10 nM",3478
same,% M,"[1]; Buffer with 0.01% CHAPS, 25 nM",−1.4%
same,close,"[1]; Buffer with 0.01% CHAPS, 25 nM",10782
same,open,"[1]; Buffer with 0.01% CHAPS, 25 nM",8526
same,% I,"[1]; Buffer with 0.01% CHAPS, 25 nM",−26.5%
same,GTP-r-S (reading),"[1]; Buffer with 0.01% CHAPS, 25 nM",10634
same,% M,"[1]; Buffer with 0.01% CHAPS, 50 nM",4.5%
same,close,"[1]; Buffer with 0.01% CHAPS, 50 nM",18587
same,open,"[1]; Buffer with 0.01% CHAPS, 50 nM",17367
same,% I,"[1]; Buffer with 0.01% CHAPS, 50 nM",−7.0%
same,GTP-r-S (reading),"[1]; Buffer with 0.01% CHAPS, 50 nM",19466
same,% M,[1]; [4],19.6%
same,close,[1]; [4],228
same,open,[1]; [4],215
same,% I,[1]; [4],−6.4%
same,GTP-r-S (reading),[1]; [4],284
same,% M,[1]; [5],20.2%
same,close,[1]; [5],827
same,open,[1]; [5],763
same,% I,[1]; [5],−8.3%
same,GTP-r-S (reading),[1]; [5],1035
same,% M,[1]; [6],11.6%
same,close,[1]; [6],2220
same,open,[1]; [6],2103
same,% I,[1]; [6],−5.6%
same,GTP-r-S (reading),[1]; [6],2510
same,% M,[1]; [7],10.5%
same,close,[1]; [7],6971
same,open,[1]; [7],6600
same,% I,[1]; [7],−5.6%
same,GTP-r-S (reading),[1]; [7],7790
same,% M,[1]; [8],8.9%
same,close,[1]; [8],13597
same,open,[1]; [8],13133
same,% I,[1]; [8],−3.5%
same,GTP-r-S (reading),[1]; [8],14932
same,% I,"[2]; Binding buffer wCHAPS, 0.1 nM",10.0%
same,close,"[2]; Binding buffer wCHAPS, 0.1 nM",1706
same,open,"[2]; Binding buffer wCHAPS, 0.1 nM",1895
same,% I,"[2]; Binding buffer wCHAPS, 0.5 nM",3.9%
same,close,"[2]; Binding buffer wCHAPS, 0.5 nM",1846
same,open,"[2]; Binding buffer wCHAPS, 0.5 nM",1921
same,% I,"[2]; Binding buffer wCHAPS, 5 nM",1.7%
same,close,"[2]; Binding buffer wCHAPS, 5 nM",3383
same,open,"[2]; Binding buffer wCHAPS, 5 nM",3442
same,% I,"[2]; Binding buffer wCHAPS, 10 nM",6.0%
same,close,"[2]; Binding buffer wCHAPS, 10 nM",5017
same,open,"[2]; Binding buffer wCHAPS, 10 nM",5339
same,% I,"[2]; Binding buffer wDTT, 0.1 nM",16.8%
same,close,"[2]; Binding buffer wDTT, 0.1 nM",1357
same,open,"[2]; Binding buffer wDTT, 0.1 nM",1632
same,% I,"[2]; Binding buffer wDTT, 0.5 nM",15.2%
same,close,"[2]; Binding buffer wDTT, 0.5 nM",1338
same,open,"[2]; Binding buffer wDTT, 0.5 nM",1579
same,% I,"[2]; Binding buffer wDTT, 5 nM",6.8%
same,close,"[2]; Binding buffer wDTT, 5 nM",2372
same,open,"[2]; Binding buffer wDTT, 5 nM",2544
same,% I,"[2]; Binding buffer wDTT, 10 nM",12.6%
same,close,"[2]; Binding buffer wDTT, 10 nM",3502
same,open,"[2]; Binding buffer wDTT, 10 nM",4006
same,% I,"[2]; Binding buffer, 0.1 nM",5.8%
same,close,"[2]; Binding buffer, 0.1 nM",1773
same,open,"[2]; Binding buffer, 0.1 nM",1882
same,% I,"[2]; Binding buffer, 0.5 nM",−2.3%
same,close,"[2]; Binding buffer, 0.5 nM",1940
same,open,"[2]; Binding buffer, 0.5 nM",1896
same,% I,"[2]; Binding buffer, 5 nM",−1.1%
same,close,"[2]; Binding buffer, 5 nM",2952
same,open,"[2]; Binding buffer, 5 nM",2921
same,% I,"[2]; Binding buffer, 10 nM",6.7%
same,close,"[2]; Binding buffer, 10 nM",4176
same,open,"[2]; Binding buffer, 10 nM",4474

# — patent publication US20040018562A1, “Receptor detection” (priority 2002, published 2004)
